Values quoted from earlier work as cited in patent US4436732A, “Medicated compound for treating diseases infected by virus of the herpes group” (priority 1981, dated 1984).

Conditions: known preparations, background; cited from earlier work

SMILES: O=c1[nH]cc(F)c(=O)[nH]1 [5-fluorouracyl]
- toxicity: rather toxic
